# Assays:
# [1] = system: anterior capsule of the crystalline lens; assay: Vital dye staining of the anterior lens capsule to visualise the CCC; conditions: absence of a red fundus reflex
# Excerpt: It is possible to use a number of vital dyes already known today, but also such which may become available in the future as the visualising agent. […] These include azophlozin, basic blue, Bismarck brown, basis red, bengal red, brilliant cresyl blue, eosin, fluorescein, gentian violet, indocyanine green, Janus green, methylene green, methylene blue, neutral red and others.
# [2] = system: corneal endothelial cells; conditions: earlier use to stain corneas prior to corneal transplants; cited from earlier work
compound,measurement,setting,value
CN(C)c1ccc(C(=C2C=CC(=[N+](C)C)C=C2)c2ccc(N(C)C)cc2)cc1 [gentian violet],staining of the anterior capsule sufficient to visualise the CCC,[1]; dye 2%,stained the anterior capsule sufficiently to visualise the CCC
CN(C)c1ccc2nc3ccc(=[N+](C)C)cc-3sc2c1 [methylene blue],staining of the anterior capsule sufficient to visualise the CCC,[1]; dye 5%,stained the anterior capsule sufficiently to visualise the CCC
Cc1cc(-c2ccc(/N=N/c3c(S(=O)(=O)O)cc4cc(S(=O)(=O)O)cc(N)c4c3O)c(C)c2)ccc1/N=N/c1c(S(=O)(=O)O)cc2cc(S(=O)(=O)O)cc(N)c2c1O [trypan blue],staining of the anterior capsule sufficient to visualise the CCC,[1]; dye 0.1%,stained the anterior capsule sufficiently to visualise the CCC
same,"tolerance of corneal endothelium to vital staining, endothelial cell counts",[2],without a reduction in endothelial cell counts
brilliant cresyl blue,staining of the anterior capsule sufficient to visualise the CCC,[1]; dye 1%,stained the anterior capsule sufficiently to visualise the CCC

# From patent publication US20050031540A1, “Visco dye” (priority 2001, published 2005)
